Entries after “also recorded” stand apart in the source; their conditions may differ. Where two headings read alike, the source gives them in different places.
What was measured:
[1] = target: acetylcholinesterase (Homo sapiens (Human), UniProt P22303); test: biochemical; type: biochemical; details: for potency on acetylcholinesterase compared with positive control drug donepezil hydrochloride: in vitro, enzymology level; for IC50: read-out: IC50 (nM), inhibition activity on acetylcholinesterase
Sequence of acetylcholinesterase (P22303 32-614, species assumed): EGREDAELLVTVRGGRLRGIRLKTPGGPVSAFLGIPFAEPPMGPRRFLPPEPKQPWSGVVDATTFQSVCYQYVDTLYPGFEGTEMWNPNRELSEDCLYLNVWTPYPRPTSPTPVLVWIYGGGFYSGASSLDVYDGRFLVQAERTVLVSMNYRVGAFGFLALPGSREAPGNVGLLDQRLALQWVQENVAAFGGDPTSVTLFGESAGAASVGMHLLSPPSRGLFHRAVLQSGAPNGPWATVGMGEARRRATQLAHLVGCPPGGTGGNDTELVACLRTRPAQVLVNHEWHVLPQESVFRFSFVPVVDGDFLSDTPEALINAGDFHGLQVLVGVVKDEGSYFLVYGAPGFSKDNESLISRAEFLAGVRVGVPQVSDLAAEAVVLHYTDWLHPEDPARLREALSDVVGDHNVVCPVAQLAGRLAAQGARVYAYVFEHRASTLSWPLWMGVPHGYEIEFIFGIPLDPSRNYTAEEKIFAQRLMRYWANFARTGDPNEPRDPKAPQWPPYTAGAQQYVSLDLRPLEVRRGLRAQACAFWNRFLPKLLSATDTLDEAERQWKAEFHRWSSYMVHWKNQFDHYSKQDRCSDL

[2] = system: white mice; test: in vivo; details: for Mortality (%) / Number of death: 5 animals; for toxicity compared with donepezil hydrochloride: preliminary acute toxicity tests
Experimental: (§1) Firstly, preliminary tests were performed, in order to determine the concentration of each compound, with just 0% mortality or just 100% mortality, before starting the formal tests. The animals were divided into groups by weight, various dosages of drugs were administered between 0%-100%. Dosage volume: 10 ml/kg. Dosage manner: intravenous injection or intragastric administration.
(§2) The animals were divided into 6 groups, with 5 animals per group.
(§3) The animals were divided into 6 groups, with 5 animals per group. […] Each animal was fasted 12 h before administration.
(§4) The animals were divided into 5 groups, with 5 animals per group.
(§5) The animals were divided into 5 groups, with 5 animals per group. […] Each animal was fasted 12 h before administration.
(§6) The toxic reaction and death of the animals after administration were observed, and mortality was counted. The results were analyzed with LD50 data processing software.

[3] = in vivo; details: mouse, in vivo
Experimental: as §1, §2, §3, §4, §5, §6

[4] = Experimental: 0.3 ml of whole blood was collected at corresponding time point, anticoagulating with heparin, centrifuged at 4000 rpm for 10 min, the plasma was separated, 50 μL the plasma sample of rats was collected, 100 μL acetonitrile (containing 0.1% formic acid) was added, mixed under vortex for 1 min, centrifuged (12000 rpm) for 10 min, the supernatant was collected, analyzed with liquid chromatography-mass spectrometer, the area of peaks were recorded and used for the calculation of blood drug concentration, and the drug-time curve was plotted.
[5] = system: learning and memory disorder induced by intracerebroventricular injection of Aβ1-42; test: Morris water maze test, rats with intracerebroventricular injection of Aβ1-42; type: in vivo; details: for The period of reaching the platform for the first time (latent period) / times of crossing platform: 8 days
Experimental: The model of learning and memory disorder induced after intracerebroventricular injection of Aβ1-42 is the most common animal model for evaluating whether a compound has the effect of improving the learning and memory. […] Morris water maze test and the model of learning and memory disorder induced by intracerebroventricular injection of Aβ1-42 were employed in the present research, and the improvement effects of I-33 on learning and memory of rats at various concentration (0.7 mg/Kg, 3.5 mg/Kg, and 7 mg/Kg) were evaluated.
SD, male (220±20 g), the animals were fed in light: dark cycle (12 h/12 h) in a cleaning level of animal room, ad lib. The tests were performed after 3 days acclimation in the animal room. Aβ1-42 was formulated to 2 μg/μl according to the instruction of specification.
(1) Normal group: intracerebroventricular injection of physiological saline
(2) Model group with intracerebroventricular injection of Aβ1-42: intracerebroventricular injection of Aβ1-42
(4) I-33 (low concentration group): I-33 (0.7 mg/Kg)+intracerebroventricular injection of Aβ1-42
(5) I-33 (medium concentration group): I-33 (3.5 mg/Kg)+intracerebroventricular injection of Aβ1-42
(6) I-33 (high concentration group): I-33 (7 mg/Kg)+intracerebroventricular injection of Aβ1-42
Each rat in normal control group received intracerebroventricular injection of 5 μl of physiological saline, each rat in the other groups received intracerebroventricular injection of 5 μl of Aβ1-42. After the operation, the rats received the following tests after 1 week recovery period. […] The drugs were administered for 8 days, the training for water maze test was started on the 5th day, and the water maze test was formally started on the 9th day.

[6] = Intragastric administration 215.23 mg/kg
[7] = Intragastric administration 239.15 mg/kg
[8] = Intragastric administration 265.72 mg/kg
[9] = Intragastric administration 295.25 mg/kg
[10] = Intragastric administration 450.00 mg/kg
[11] = Intragastric administration 500.00 mg/kg
[12] = Intravenous injection 16.18 mg/kg
[13] = Intravenous injection 20.48 mg/kg
[14] = Intravenous injection 25.60 mg/kg
[15] = Intravenous injection 32.00 mg/kg
[16] = Intravenous injection 40.00 mg/kg
[17] = Intravenous injection 50.00 mg/kg
[18] = Aβ1-42 rats, DPH 3 mg/Kg, I-33 all dosages tested
[19] = high concentration 7 mg/Kg intragastric, Aβ1-42 rats
[20] = low concentration 0.7 mg/Kg intragastric, Aβ1-42 rats
[21] = medium concentration 3.5 mg/Kg intragastric, Aβ1-42 rats
[22] = Intragastric administration 122.88 mg/kg
[23] = Intragastric administration 153.60 mg/kg
[24] = Intragastric administration 240.00 mg/kg
[25] = Intragastric administration 300.00 mg/kg
[26] = Intravenous injection 16.40 mg/kg
[27] = Intravenous injection 18.23 mg/kg
[28] = Intravenous injection 20.25 mg/kg
[29] = Intravenous injection 23.04 mg/kg

## Cl.O=C1c2cc3c(cc2C2(CC2)N1CCC1CCN(Cc2ccccn2)CC1)OCO3 [Compound I-33, 6-[2-[1-(2-pyridylmethyl)-4-piperidyl]ethyl]spiro[[1,3]dioxolo[4,5-f]isoindole-7,1′-cyclopropane]-5-one hydrochloride]
[1]
  potency on acetylcholinesterase compared with positive control drug donepezil hydrochloride: even lower
  IC50: 950 nM
[2]; [6]
  Mortality (%): 0%
  Number of death: 0
[2]; [7]
  Mortality (%): 0%
  Number of death: 1
[2]; [8]
  Mortality (%): 40%
  Number of death: 2
[2]; [9]
  Mortality (%): 60%
  Number of death: 3
[2]; [10]
  Mortality (%): 80%
  Number of death: 4
[2]; [11]
  Mortality (%): 100%
  Number of death: 5
[2]; [12]
  Mortality (%): 0%
  Number of death: 0
[2]; [13]
  Mortality (%): 0%
  Number of death: 0
[2]; [14]
  Mortality (%): 20%
  Number of death: 1
[2]; [15]
  Mortality (%): 60%
  Number of death: 3
[2]; [16]
  Mortality (%): 80%
  Number of death: 4
[2]; [17]
  Mortality (%): 100%
  Number of death: 5
[2]
  median lethal dose by oral and intravenous administration, times of those of donepezil hydrochloride: 8-10 times
[2]; hydrochloride
  toxicity compared with donepezil hydrochloride: lower toxicity than donepezil hydrochloride; also recorded: much lower toxicity
[3]; iv
  LD50: 31.3 mg/kg
[3]; po
  LD50: 303 mg/kg
[4]; rat plasma, oral 5 mg/kg
  t1/2z: 2.085 ± 0.392
[4]; rat, oral, same dosage 5 mg/kg
  absorption degree (AUC) and peak concentration (Cmax) compared with donepezil hydrochloride: significantly higher than those of donepezil hydrochloride
[5]; [18]
  effect on period required for reaching the platform for the first time (latent period): significantly shorten the period required for reaching the platform for the first time
  effect on times of crossing the platform: significantly increases the times of crossing the platform
[5]; Morris water maze, 0.7, 3.5 and 7 mg/Kg, hydrochloride
  improvement of learning and memory disorder of rats induced by Aβ1-42: significantly improve the learning and memory disorder of rats induced by intracerebroventricular injection of Aβ1-42; also recorded: stronger effects of improving learning and memory
[5]; [19]
  The period of reaching the platform for the first time (latent period): 14.87 ± 3.62
  times of crossing platform: 3.20 ± 0.36
[5]; [20]
  The period of reaching the platform for the first time (latent period): 21.37 ± 3.64
  times of crossing platform: 3.00 ± 0.33
[5]; [21]
  The period of reaching the platform for the first time (latent period): 18.10 ± 6.54
  times of crossing platform: 3.40 ± 0.43

## Cl.O=C1c2cc3c(cc2C2(CC2)N1CCC1CCN(Cc2ccccc2)CC1)OCO3 [Compound I-34, 6-[2-(1-benzyl-4-piperidyl)ethyl]spiro[[1,3]dioxolo[4,5-f]isoindole-7,1′-cyclopropane]-5-one hydrochloride]
[1]; hydrochloride
  potency on acetylcholinesterase compared with positive control drug donepezil hydrochloride: slightly lower potency than the positive control drug; also recorded: comparable inhibition activity on acetylcholinesterase with donepezil hydrochloride
[1]
  IC50: 197 nM
[2]; [22]
  Mortality (%): 0%
  Number of death: 0
[2]; [23]
  Mortality (%): 40%
  Number of death: 2
[2]; [24]
  Mortality (%): 80%
  Number of death: 4
[2]; [25]
  Mortality (%): 100%
  Number of death: 5
[2]; [26]
  Mortality (%): 0%
  Number of death: 0
[2]; [27]
  Mortality (%): 20%
  Number of death: 1
[2]; [28]
  Mortality (%): 60%
  Number of death: 3
[2]; [29]
  Mortality (%): 80%
  Number of death: 4
[2]; [14]
  Mortality (%): 100%
  Number of death: 5
[2]
  median lethal dose by oral and intravenous administration, times of those of donepezil hydrochloride: 4-7 times
  toxicity compared with donepezil hydrochloride: lower toxicity than donepezil hydrochloride
[3]; iv
  LD50: 20.1 mg/kg
[3]; po
  LD50: 171 mg/kg

## O=C1c2cc3c(cc2C2(CC2)N1CCC1CCN(Cc2ccccn2)CC1)OCO3 [Compound I-35, 6-[2-[1-(2-pyridylmethyl)-4-piperidyl]ethyl]spiro[[1,3]dioxolo[4,5-f]isoindole-7,1′-cyclopropane]-5-one phosphate]
[1]; modified Ellman method
  IC50: 601 nM
[4]; rat, in vivo, po, 5 mg/kg
  MRT(0-t): 2.343 ± 0.206
  MRT(0-∞): 2.483 ± 0.265
  t1/2z: 1.965 ± 0.296
